Consider one molecule from ChEMBL document CHEMBL6087420, “Synthesis and pharmacodynamic evaluation of 2-aminoindole derivatives against influenza A virus in vitro/vivo” (Eur J Med Chem, 2025).

The source made the active and inactive calls. The rule behind the calls is not given here.

Data set [1] concerns Influenza A virus. Put plainly: Inhibition of influenza A virus infection induced apoptosis in MDCK cells infected with influenza virus assessed as upregulation of Bcl2 incubated for 36 hrs by Western blot analysis. The format is functional, organism-based. On the technique in general: A western blot detects proteins with antibodies after separation by electrophoresis.
Data set [2] concerns Influenza A virus. Put plainly: Inhibition of influenza A virus infection induced apoptosis in MDCK cells infected with influenza virus assessed as decrease in cleaved caspase 9 incubated for 36 hrs by Western blot analysis. It is filed as functional, organism-based.
The nature of data set [3]: Selectivity index, ratio of CC50 for dog MDCK cells to EC50 for antiviral activity against Influenza A virus H1N1 (A/Weiss/43) infected in MDCK cells. The note with it: read-out: Ratio CC50/EC50. The format is toxicity, cell-based.
Data set [4] deals with Influenza A virus. The data set can be described thus: Antiviral activity against influenza A virus infected in A549 cells assessed as decrease in IAV-M2 mRNA level measured after 1 to 3 days of viral infection. It is filed as functional, organism-based. To be noted: time 1-3 day.
Data set [5] concerns Influenza A virus. Put plainly: Antiviral activity against influenza A virus H1N1 infected in MDCK cells assessed as decrease in virus infection-induced cytopathic effect. The format is functional, organism-based. (In general: Cytopathic effects are the visible damage that an infection or toxin causes in cultured cells.)
Data set [6] concerns Influenza A virus. Put plainly: Anti-influenza activity against influenza A virus H1NI (A/Weiss/43) infected in dog MDCK cells assessed as virus inhibition rate incubated for 72 hrs by MTT assay. The format is functional, organism-based. On the technique in general: Tetrazolium assays rely on reduction of a dye to a coloured formazan, in cell work by metabolically active cells.

Data set [7] has as its system Influenza A virus. The data set can be described thus: Inhibition of influenza A virus infection induced apoptosis in MDCK cells infected with influenza virus assessed as late apoptotic cells at 25 uM incubated for 36 hrs by AnnexinV-FITC/PI staining based flow cytometry (reference value: 13.2%). Also on record: scale not given: the % may be the effect or the level left. The format is functional.

Data set [8] has as its system Influenza A virus. The data set can be described thus: In vivo antiviral activity against influenza A virus infected in BALB/c mouse assessed as reduction in OAS1 mRNA level in lung at 25 to 100 mg/kg measured after 6 dpi. To be noted: dose 25-100 mg/kg. It is filed as functional, organism-based.
In data set [9] the test system is Influenza A virus. Put plainly: In vivo antiviral activity against influenza A virus infected in BALB/c mouse assessed as reduction in NLRP-3 mRNA level in lung at 25 to 100 mg/kg measured after 6 dpi. To be noted: dose 25-100 mg/kg. It is filed as functional, organism-based.
Data set [10] concerns Influenza A virus. The data set can be described thus: Antiviral activity against influenza A virus infected in human A549 cells assessed as inhibition of IL-6 expression by qRT-PCR analysis. The format is functional, organism-based.
A short description of data set [11]: Toxicity in healthy BALB/c mouse assessed as pathological change in spleen at 25 to 100 mg/kg administered through gavage for 6 days. The format is organism-based. The note with it: in vivo, po, 144 h, dose 25-100 mg/kg, time 6 day.
For data set [12], the system named is Influenza A virus. The data set can be described thus: Antiviral activity against influenza virus infected in A549 cells assessed as inhibition in inflammatory cell invasion. It is filed as functional, organism-based.

As for `COc1ccc2c(c1)c(-c1ccccc1)c(NS(C)(=O)=O)n2S(=O)(=O)c1ccc(C)cc1`, the result in the data set with Influenza A virus [1], with Influenza A virus [4], with Influenza A virus [5], in the data set with Influenza A virus [8], in the data set with Influenza A virus [9] and in the data set on Influenza A virus [10] was Active. Further, the result in the data set on Influenza A virus [12] was Active. Also, the Activity result with Influenza A virus [2] was “Dose-dependent-effect”; with Influenza A virus [7] it was 9.29%; in data set [11], “Non-toxic”. Moreover, the selectivity ratio in [3] was determined as 80. The EC50 – broadly, the concentration at which the effect is half-maximal – in the data set on Influenza A virus [6] stood at 8.37 µM.
